Measured values reported in the NIST ThermoML archive (doi:10.1021/acs.jced.8b00554).
± gives the expanded uncertainty stated by the source.

Test: xn = mol fraction of the nth substance listed
Conditions: 313.15 K, Liquid, Vibrating tube method

With `CCCCCCCCCC` [decane] + CCCO the mass density (100 kPa, x2 = 0.1391) was 716.51 ± 4.6 kg/m3, the mass density (100 kPa, x2 = 0.1907) was 717.9 ± 4.6 kg/m3 and the mass density (100 kPa, x2 = 0.3001) was 721.57 ± 4.6 kg/m3. For the same molecule, the mass density (100 kPa, x2 = 0.4326) was 726.91 ± 4.7 kg/m3, the mass density (100 kPa, x2 = 0.6863) was 743.48 ± 4.8 kg/m3 and the mass density (100 kPa, x2 = 0.8711) was 764.1 ± 4.9 kg/m3. For the same molecule, the mass density (1000 kPa, x2 = 0.3001) was 723.23 ± 4.6 kg/m3, the mass density (1000 kPa, x2 = 0.4326) was 728.22 ± 4.7 kg/m3 and the mass density (1010 kPa, x2 = 0.1907) was 718.96 ± 4.6 kg/m3. It also gave a mass density (1010 kPa, x2 = 0.6863) of 744.97 ± 4.8 kg/m3, a mass density (1010 kPa, x2 = 0.8711) of 765.33 ± 4.9 kg/m3 and a mass density (1020 kPa, x2 = 0.1391) of 717.29 ± 4.6 kg/m3. It also gave a mass density (2000 kPa, x2 = 0.1391) of 718.2 ± 4.6 kg/m3, a mass density (2000 kPa, x2 = 0.1907) of 719.85 ± 4.6 kg/m3 and a mass density (2000 kPa, x2 = 0.8711) of 766.21 ± 4.9 kg/m3. For the same molecule, the mass density (2010 kPa, x2 = 0.3001) was 724.13 ± 4.6 kg/m3, the mass density (2010 kPa, x2 = 0.4326) was 729.1 ± 4.7 kg/m3 and the mass density (2010 kPa, x2 = 0.6863) was 745.85 ± 4.8 kg/m3. For the same molecule, the mass density (3000 kPa, x2 = 0.1391) was 719.08 ± 4.6 kg/m3, the mass density (3000 kPa, x2 = 0.4326) was 730 ± 4.7 kg/m3 and the mass density (3010 kPa, x2 = 0.1907) was 720.73 ± 4.6 kg/m3. It also gave a mass density (3010 kPa, x2 = 0.6863) of 746.75 ± 4.8 kg/m3, a mass density (3020 kPa, x2 = 0.3001) of 725.02 ± 4.6 kg/m3 and a mass density (3020 kPa, x2 = 0.8711) of 767.09 ± 4.9 kg/m3. It also gave a mass density (4010 kPa, x2 = 0.1391) of 719.94 ± 4.6 kg/m3, a mass density (4010 kPa, x2 = 0.1907) of 721.6 ± 4.6 kg/m3 and a mass density (4010 kPa, x2 = 0.3001) of 725.89 ± 4.7 kg/m3. The mass density (4010 kPa, x2 = 0.6863) was 747.62 ± 4.8 kg/m3, the mass density (4010 kPa, x2 = 0.8711) was 767.96 ± 4.9 kg/m3 and the mass density (4020 kPa, x2 = 0.4326) was 730.9 ± 4.7 kg/m3. The mass density (5000 kPa, x2 = 0.3001) was 726.76 ± 4.7 kg/m3, the mass density (5010 kPa, x2 = 0.1391) was 720.8 ± 4.6 kg/m3 and the mass density (5010 kPa, x2 = 0.1907) was 722.46 ± 4.6 kg/m3. For the same molecule, the mass density (5020 kPa, x2 = 0.4326) was 731.76 ± 4.7 kg/m3, the mass density (5020 kPa, x2 = 0.6863) was 748.51 ± 4.8 kg/m3 and the mass density (5020 kPa, x2 = 0.8711) was 768.83 ± 4.9 kg/m3. It also gave a mass density (6000 kPa, x2 = 0.1391) of 721.67 ± 4.6 kg/m3, a mass density (6000 kPa, x2 = 0.4326) of 732.64 ± 4.7 kg/m3 and a mass density (6000 kPa, x2 = 0.6863) of 749.38 ± 4.8 kg/m3. For the same molecule, the mass density (6010 kPa, x2 = 0.1907) was 723.31 ± 4.6 kg/m3, the mass density (6010 kPa, x2 = 0.8711) was 769.69 ± 4.9 kg/m3 and the mass density (6020 kPa, x2 = 0.3001) was 727.63 ± 4.7 kg/m3. It also gave a mass density (7000 kPa, x2 = 0.1907) of 724.18 ± 4.6 kg/m3, a mass density (7010 kPa, x2 = 0.1391) of 722.52 ± 4.6 kg/m3 and a mass density (7010 kPa, x2 = 0.6863) of 750.25 ± 4.8 kg/m3. The mass density (7020 kPa, x2 = 0.3001) was 728.48 ± 4.7 kg/m3, the mass density (7020 kPa, x2 = 0.4326) was 733.49 ± 4.7 kg/m3 and the mass density (7020 kPa, x2 = 0.8711) was 770.55 ± 4.9 kg/m3. The mass density (8000 kPa, x2 = 0.3001) was 729.32 ± 4.7 kg/m3, the mass density (8000 kPa, x2 = 0.6863) was 751.12 ± 4.8 kg/m3 and the mass density (8010 kPa, x2 = 0.1391) was 723.35 ± 4.6 kg/m3. For the same molecule, the mass density (8010 kPa, x2 = 0.1907) was 725.03 ± 4.6 kg/m3, the mass density (8010 kPa, x2 = 0.4326) was 734.37 ± 4.7 kg/m3 and the mass density (8010 kPa, x2 = 0.8711) was 771.39 ± 4.9 kg/m3. The mass density (9010 kPa, x2 = 0.1391) was 724.19 ± 4.6 kg/m3, the mass density (9010 kPa, x2 = 0.1907) was 725.85 ± 4.7 kg/m3 and the mass density (9010 kPa, x2 = 0.3001) was 730.17 ± 4.7 kg/m3. The mass density (9010 kPa, x2 = 0.6863) was 751.97 ± 4.8 kg/m3, the mass density (9020 kPa, x2 = 0.4326) was 735.2 ± 4.7 kg/m3 and the mass density (9020 kPa, x2 = 0.8711) was 772.23 ± 5 kg/m3. For the same molecule, the mass density (10000 kPa, x2 = 0.6863) was 752.81 ± 4.8 kg/m3, the mass density (10010 kPa, x2 = 0.1391) was 724.99 ± 4.7 kg/m3 and the mass density (10010 kPa, x2 = 0.1907) was 726.66 ± 4.7 kg/m3. The mass density (10010 kPa, x2 = 0.3001) was 731 ± 4.7 kg/m3, the mass density (10010 kPa, x2 = 0.4326) was 736.06 ± 4.7 kg/m3 and the mass density (10020 kPa, x2 = 0.8711) was 773.07 ± 5 kg/m3. The mass density (11000 kPa, x2 = 0.1907) was 727.49 ± 4.7 kg/m3, the mass density (11000 kPa, x2 = 0.3001) was 731.82 ± 4.7 kg/m3 and the mass density (11000 kPa, x2 = 0.6863) was 753.64 ± 4.8 kg/m3. It also gave a mass density (11010 kPa, x2 = 0.1391) of 725.82 ± 4.7 kg/m3, a mass density (11010 kPa, x2 = 0.8711) of 773.9 ± 5 kg/m3 and a mass density (11020 kPa, x2 = 0.4326) of 736.89 ± 4.7 kg/m3. For the same molecule, the mass density (12000 kPa, x2 = 0.8711) was 774.72 ± 5 kg/m3, the mass density (12010 kPa, x2 = 0.1907) was 728.3 ± 4.7 kg/m3 and the mass density (12010 kPa, x2 = 0.3001) was 732.64 ± 4.7 kg/m3. It also gave a mass density (12010 kPa, x2 = 0.4326) of 737.71 ± 4.7 kg/m3, a mass density (12010 kPa, x2 = 0.6863) of 754.47 ± 4.8 kg/m3 and a mass density (12020 kPa, x2 = 0.1391) of 726.61 ± 4.7 kg/m3. The mass density (13000 kPa, x2 = 0.1391) was 727.41 ± 4.7 kg/m3, the mass density (13000 kPa, x2 = 0.1907) was 729.09 ± 4.7 kg/m3 and the mass density (13000 kPa, x2 = 0.8711) was 775.51 ± 5 kg/m3. For the same molecule, the mass density (13010 kPa, x2 = 0.3001) was 733.44 ± 4.7 kg/m3, the mass density (13010 kPa, x2 = 0.4326) was 738.53 ± 4.7 kg/m3 and the mass density (13010 kPa, x2 = 0.6863) was 755.3 ± 4.8 kg/m3. The mass density (14000 kPa, x2 = 0.3001) was 734.23 ± 4.7 kg/m3, the mass density (14010 kPa, x2 = 0.1391) was 728.19 ± 4.7 kg/m3 and the mass density (14010 kPa, x2 = 0.4326) was 739.32 ± 4.7 kg/m3. It also gave a mass density (14010 kPa, x2 = 0.6863) of 756.1 ± 4.8 kg/m3, a mass density (14020 kPa, x2 = 0.1907) of 729.89 ± 4.7 kg/m3 and a mass density (14020 kPa, x2 = 0.8711) of 776.33 ± 5 kg/m3. For the same molecule, the mass density (15000 kPa, x2 = 0.6863) was 756.89 ± 4.8 kg/m3, the mass density (15010 kPa, x2 = 0.1391) was 728.97 ± 4.7 kg/m3 and the mass density (15010 kPa, x2 = 0.1907) was 730.66 ± 4.7 kg/m3. It also gave a mass density (15010 kPa, x2 = 0.3001) of 735.01 ± 4.7 kg/m3.
